Data published in PubChem BioAssay (NCI).
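Compound exposure: 48 hours, 5 concentrations, 96-well plates. TGI denotes the concentration required for complete inhibition of growth.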

Experiments:
Assay in all cases: inhibition of tumour cell growth, NCI panel, 48 h
[1] = tested on: HOP-92 NSCLC
[2] = tested on: HCT-15 colon
[3] = tested on: SF-295 CNS
[4] = tested on: MDA-N
[5] = tested on: PC-3 prostate
[6] = tested on: RPMI-8226 leukemia
[7] = tested on: HCC-2998 colon
[8] = tested on: T-47D breast
[9] = tested on: HOP-62 NSCLC
[10] = tested on: SR leukemia
[11] = tested on: HL-60(TB) leukemia
[12] = tested on: OVCAR-8 ovarian
[13] = tested on: COLO 205 colon
[14] = tested on: SK-MEL-5 melanoma
[15] = tested on: NCI-H23 lung
[16] = tested on: A498 renal
[17] = tested on: TK-10 renal
[18] = tested on: IGROV1 ovarian
[19] = tested on: SW-620 colon
[20] = tested on: SN12C renal
[21] = tested on: NCI/ADR-RES ovarian
[22] = tested on: K-562 leukemia
[23] = tested on: ACHN renal
[24] = tested on: MOLT-4 leukemia
[25] = tested on: MDA-MB-435
[26] = tested on: NCI-H226 lung
[27] = tested on: HT29 colon
[28] = tested on: OVCAR-4 ovarian
[29] = tested on: BT-549 breast
[30] = tested on: EKVX NSCLC
[31] = tested on: SF-268 CNS
[32] = tested on: UO-31 renal
[33] = tested on: NCI-H460 lung
[34] = tested on: A549 NSCLC
[35] = tested on: SNB-75 CNS
[36] = tested on: UACC-62 melanoma
[37] = tested on: OVCAR-5 ovarian
[38] = tested on: U251 CNS
[39] = tested on: 786-0 renal
[40] = tested on: M14 melanoma
[41] = tested on: MDA-MB-231 breast
[42] = tested on: SK-OV-3 ovarian
[43] = tested on: HCT-116 colon
[44] = tested on: MCF7 breast
[45] = tested on: DU-145 prostate
[46] = tested on: LOX IMVI melanoma
[47] = tested on: CCRF-CEM leukemia
[48] = tested on: MALME-3M melanoma
[49] = tested on: SNB-19 CNS
[50] = tested on: OVCAR-3 ovarian
[51] = tested on: SK-MEL-28 melanoma
[52] = tested on: SK-MEL-2 melanoma
[53] = tested on: KM12 colon
[54] = tested on: CAKI-1 renal
[55] = tested on: UACC-257 melanoma
[56] = tested on: NCI-H522 lung
[57] = tested on: HS 578T breast
[58] = tested on: RXF 393 renal

`COC(=O)C1(Cc2cccc(Cl)c2)CCCCCCN1C(=O)c1ccccc1` (centres undefined) showed a TGI [1] of 35.6 µM, a TGI [2] of 25.3 µM and a TGI [3] of 22.1 µM. The TGI [4] was 30.4 µM, the TGI [5] was 17.4 µM and the TGI [6] was 32.2 µM. For the same compound, the TGI [7] was 27.5 µM, the TGI [8] was 37.4 µM and the TGI [9] was 29 µM. For the same compound, the TGI [10] was 39.8 µM, the TGI [11] was 34.3 µM and the TGI [12] was 33.4 µM. It also gave a TGI [13] of 38.7 µM, a TGI [14] of 26.6 µM and a TGI [15] of 51.1 µM. The TGI [16] was 29 µM, the TGI [17] was 29.5 µM and the TGI [18] was 45.5 µM. The TGI [19] was 36 µM, the TGI [20] was 28.1 µM and the TGI [21] was 54.1 µM. For the same compound, the TGI [22] was 59.8 µM, the TGI [23] was 30 µM and the TGI [24] was 32.1 µM. For the same compound, the TGI [25] was 51.8 µM, the TGI [26] was 48.8 µM and the TGI [27] was 32.1 µM. It also gave a TGI [28] of 50.6 µM, a TGI [29] of 40.8 µM and a TGI [30] of 26.8 µM. For the same compound, the TGI [31] was 42.1 µM, the TGI [32] was 29.3 µM and the TGI [33] was 33.8 µM. The TGI [34] was 33.6 µM, the TGI [35] was 29.6 µM and the TGI [36] was 28.5 µM. The TGI [37] was 44.7 µM, the TGI [38] was 29.7 µM and the TGI [39] was 26.3 µM. For the same compound, the TGI [40] was 45 µM, the TGI [41] was 29 µM and the TGI [42] was 42.8 µM. It also gave a TGI [43] of 29.7 µM, a TGI [44] of 26.6 µM and a TGI [45] of 37.7 µM. The TGI [46] was 32.8 µM, the TGI [47] was 31.6 µM and the TGI [48] was 25.3 µM. The TGI [49] was 31.2 µM, the TGI [50] was 20.4 µM and the TGI [51] was 31.7 µM.
`CCOC(=O)CCC(NC(=O)OCc1ccccc1)C(=O)NC(CCC(=O)OCC)C(=O)NC(CCC(=O)OCC)C(=O)NC(CCC(=O)OCC)C(=O)NC(CCC(=O)OCC)C(=O)OCC` (centres undefined) was tested, and the TGI [2] was > 100 µM, the TGI [3] was > 100 µM and the TGI [4] was > 100 µM. For the same compound, the TGI [52] was > 100 µM, the TGI [5] was > 100 µM and the TGI [6] was > 100 µM. For the same compound, the TGI [8] was > 100 µM, the TGI [9] was > 100 µM and the TGI [10] was > 100 µM. The TGI [12] was > 100 µM, the TGI [13] was > 100 µM and the TGI [14] was > 100 µM. The TGI [15] was > 100 µM, the TGI [17] was > 100 µM and the TGI [53] was > 100 µM. For the same compound, the TGI [18] was > 100 µM, the TGI [54] was > 100 µM and the TGI [19] was > 100 µM. For the same compound, the TGI [20] was > 100 µM, the TGI [21] was > 100 µM and the TGI [23] was > 100 µM. For the same compound, the TGI [24] was > 100 µM, the TGI [25] was > 100 µM and the TGI [27] was > 100 µM. For the same compound, the TGI [28] was > 100 µM, the TGI [29] was > 100 µM and the TGI [30] was > 100 µM. For the same compound, the TGI [32] was > 100 µM, the TGI [33] was > 100 µM and the TGI [34] was > 100 µM. For the same compound, the TGI [55] was > 100 µM, the TGI [35] was > 100 µM and the TGI [36] was > 100 µM. For the same compound, the TGI [37] was > 100 µM, the TGI [38] was > 100 µM and the TGI [39] was > 100 µM. The TGI [56] was > 100 µM, the TGI [57] was > 100 µM and the TGI [40] was > 100 µM. The TGI [42] was > 100 µM, the TGI [43] was > 100 µM and the TGI [44] was > 100 µM. For the same compound, the TGI [45] was > 100 µM, the TGI [46] was > 100 µM and the TGI [47] was > 100 µM. The TGI [48] was > 100 µM, the TGI [58] was > 100 µM and the TGI [51] was > 100 µM.
